Bridge positions count the residues as written; N and C are the ends. Square brackets hold non-standard residues; d marks the D form. Peptide text beside a SMILES is read from it. R8 = C=CCCCCCC[C@@](C)(N)C(=O)O; S5 = C=CCCC[C@](C)(N)C(=O)O
How the values were obtained:
[1] = CD spectroscopy, percentage of helicity; type: physicochemical; details: CD at 222 nm, 10 mM phosphate buffer pH 7.5, 50 μM peptide, 25° C.
How it was run: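 CD spectra were recorded at 25 °C on 50 μM peptide in 10 mM phosphate buffer, pH 7.5, from 180 to 260 nm, averaged over three scans and buffer-subtracted. Percent helicity was calculated from molar ellipticity at 222 nm, normalized to residue number and peptide concentration.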

[2] = system: recombinant green fluorescent protein (GFP)-expressing RSV virus (strain A2); experiment: HRSV-eGFP inhibition assay (cellular viral fusion assay, A549 cells, flow cytometry); type: cell-based
Procedure: The inhibitory activity of the peptides of the invention was assessed in a cellular viral fusion assay as compared to comparative peptides as follows. A549 cells were infected with a recombinant green fluorescent protein (GFP)-expressing RSV virus (strain A2) obtained as described below and in Hallak et al., 2000, Virology, 271:264-275, and the inhibitory activity of the peptides was quantified by flow cytometry.
Following rapid thawing of the frozen eGFP encoding RSV virus at […], the virus was vortexed for 2 min, and pipetted up and down to break aggregates. Serial 4-fold dilutions of inhibitors were prepared in glass tubes and mixed with a volume of virus required to achieve approximately 50% of infection in 200 μl of media containing 2% of FCS. The resulting mixture was added to 24-well plates containing A549 cells. Cells were incubated for 2 hours at 37° C., the media was replaced, and cells were incubated for an additional 24 hours. Cells were treated with 300 μl of trypsin for 10 min at 37° C., and the detached cells were diluted in 1 ml of culture medium. Following centrifugation at 1′700 rpm, the pellet was resuspended in 300 μl of PBS+1% SBF (V/V) and GFP positive cells were counted by FACS analysis.

[3] = Proteolytic stability assay, trypsin; type: in vitro ADME; details: trypsin (isolated protease), pH 8; 50 mM Tris-HCl pH8, 25° C., LC-MS; read-out: t1/2 (min) Trypsin
Procedure: (§1) The compounds according to the invention are tested for their stability in a proteolytic stability assay as described below which is an important parameter to assess for the development of peptide therapeutics. Peptides of the invention 4bb, 4ca, 4a and their unstapled comparative peptide 4, as well as both SAH-RSVFBD isomers were treated with chymotrypsin and trypsin, and analysed by LC/MS to quantify the reaction products over time.
(§2) In vitro proteolytic degradation was measured via LC-MS using an Agilent Infinity 1280 UHPLC system coupled to an Agilent quadruple-time-of-flight (QTOF) 6530 with an Agilent Jet Stream electrospray ionisation (AJS ESI) source (all Agilent Technologies, Waldbronn, Germany). 5 μl of digested sample were injected onto a C18 column (Zorbax Eclipse Plus RRHD, 1.8 μm, 2.1*100 mm, Agilent Technologies, Waldbronn, Germany) equilibrated with solvent A and eluted with a flow rate of 0.4 ml/min over a 5-95% gradient of solvent B in 5 minutes, followed by 1.5 minutes at 95% and 0.5 minutes post-time where solvent A was 95% water, 5% acetonitrile with 0.2% formic acid and solvent B was 5% water, 95% acetonitrile with 0.2% formic acid. The AJS ESI source was operated with a capillary voltage of 4000V and a nozzle voltage of 600V with a drying gas temperature of 325° C. and flow rate of 10 l/min, nebulising gas pressure of 20 psi, and a sheath gas temperature of 300° C. and flow rate of 11l/min. Mass spectra were acquired in the positive ion mode from 100-3200 m/z at a rate of 1 scan per second in extended dynamic range (2 GHz) mode. The fragmentor, skimmer and octopole Radio Frequency voltages were set to 200, 60 and 750 V respectively. Data were acquired and analysed with Agilent MassHunter Workstation (version B.05).
(§3) Peptide digestion was performed as it follows: 10 μl of peptide at 0.29 mM in 50/50 acetonitrile/water were dissolved in 990 μl 100 mM Tris-HCl, pH 8.0 with 10 mM CaCl2. Following measurement of the undigested (to) sample, 10 μl of chymotrypsin at 50 μg/ml in 100 mM Tris-HCl, pH 8.0 with 10 mM CaCl2 were added and the sample was vortexed and placed immediately in the autosampler, set to 25° C. Trypsin digestion was performed as with chymotrypsin except that the buffer was in 50 mM Tris-HCl, pH8. Chymotrypsin and trypsin were purchased from Thermo Fisher Scientific.
(§4) The level of intact peptide was quantified by serial injection over time. Integration of the intact peptide compound chromatogram was performed using the Agilent Molecular Feature Extraction (MFE) algorithm. A plot of the intact peptide MFE peak area over time gave an exponential decay curve, from which the half-life was determined using MatLab […].

chymotrypsin = target: T1, chymotrypsin (Bos taurus, UniProt P00766); experiment: Proteolytic stability assay, chymotrypsin; type: in vitro ADME
T1 construct: purchased Thermo Fisher Scientific
Procedure: as §1, §2, §3, §4

CC[C@H](C)[C@H](NC(=O)[C@H](Cc1ccccc1)NC(=O)[C@]1(C)CCCC=CCCC[C@](C)(NC(=O)[C@@H](NC(=O)[C@H](CCCCN)NC(=O)[C@H](CCC(=O)O)NC(C)=O)[C@@H](C)CC)C(=O)N[C@@H](CCC(N)=O)C(=O)N[C@@H](CO)C(=O)N[C@@H](CC(C)C)C(=O)N1)C(=O)N[C@@H](CCCNC(=N)N)C(=O)N[C@]1(C)CCCCCCC=CCCC[C@@](C)(C(=O)N[C@H](C(N)=O)C(C)C)NC(=O)[C@H](Cc2c[nH]cn2)NC(=O)[C@H](CC(C)C)NC(=O)[C@H](CC(C)C)NC(=O)[C@H](CCC(=O)O)NC(=O)[C@H](CC(=O)O)NC(=O)[C@H](CO)NC1=O [Peptide 4bf, EKI X500 QSL X504 FIR 8508 SDELLH X515V, reference compound] (Ac-EKI[S5]QSL[S5]FIR[R8]SDELLH[S5]V-NH2; staple 4-8, 12-19 (inferred))
% helicity [1]: >100% | inhibitory activity in cellular viral fusion assay [2]: inactive

Ac-EKINQSLAFIRKSDELLHNV-NH2 (N-terminus and C-terminus assumed) [Peptide 4, reference compound]
half-life [3]: 5 min | half-life at 2.9 µM (chymotrypsin; chymotrypsin (isolated protease), 100 mM Tris-HCl pH 8.0, 10 mM CaCl2, 25° C., LC-MS, read-out: t1/2 (min) Chymotrypsin): 4.5 min | time to full degradation (chymotrypsin; treated with chymotrypsin and trypsin): 10 min
